# Values of other authors as cited in publication PMC11920646 (Frontiers in Pharmacology, 2025).
# Assays:
# [1] = humans ref Ripa et al., 2018; cited from earlier work
# [2] = test system: IFN-γ release in human whole blood; parameters: method as in Hu et al., 2011; conditions: at concentrations each of 100–1000 nM ref Hu et al., 2011; cited from earlier work
# [3] = test system: IL-6 release in A549 cells; parameters: method as in Hu et al., 2011; conditions: dagrocorat study ref Hu et al., 2011; cited from earlier work
Compound,t½ [1],inhibition of IFN-γ release in human whole blood [2],inhibition of IL-6 release in A549 cells [3]
CC(C)[C@H](NC(=O)C(C)(F)F)[C@H](Oc1ccc2c(cnn2-c2ccc(=O)n(C)c2)c1)c1ccccc1 [mizacorat],~5 h,,
Cc1ncccc1NC(=O)c1ccc2c(c1)CC[C@@H]1C[C@@](O)(C(F)(F)F)CC[C@@]21Cc1ccccc1 [dagrocorat],,60–70%,78%
